Experimental data taken from US20120264685A1 (priority 2009, published 2012).
Where a SMILES comes first, the peptide text is derived from it. [ ]: non-standard residue; d: D form. ξ: configuration not given here. ξαMeBip(2'-Et,4'-OMe) = CCc1cc(OC)ccc1-c1ccc(CC(C)(N)C(=O)O)cc1; ξαMePhe(2,6-F2) = CC(N)(Cc1c(F)cccc1F)C(=O)O; ξαMe(hhPhe) = CC(N)(CCCc1ccccc1)C(=O)O; ξαMePhe(2-F) = CC(N)(Cc1ccccc1F)C(=O)O; ξhhPhe = NC(CCCc1ccccc1)C(=O)O; ξαMeD = CC(N)(CC(=O)O)C(=O)O; ξαMeP = CC1(C(=O)O)CCCN1; ξαMeS = CC(N)(CO)C(=O)O; Aib = CC(C)(N)C(=O)O

Columns and labels:
[1] = system: RIN5F (Rat Insulinoma) cells; assay: In vitro glucose-dependent insulin secretion (RIN5F cell assay); assay type: cell-based; conditions: 16.7-mM glucose load, n = 3, mean ± S.D.
Outline: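 Rat RIN5F cells were preincubated 40 min in Krebs-Ringer buffer with 1.1 mM glucose and 0.5% BSA, pH 7.4, then exposed to test peptidomimetics for 30 min at 37 °C with 16.7 mM or 0 mM glucose. Supernatant insulin was measured by rat insulin ELISA and normalised to total protein (BCA), as pg/μg.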

[2] = Stability in liver microsomes; assay type: in vitro ADME, human; conditions: 2 μM, 37° C.; for half-life: human, microsomes, read-out: half-life (t1/2) in liver microsomes
Method: (§1) Reactions were terminated by the addition of TFA/H2O ([…], 10% (v/v)). […] The column was equilibrated with TFA/H20, at a flow rate of 1 mL/min. […] The absorbance was monitored at 206 nm using UV detector and peaks were collected manually prior to ESI-MS analysis.

[3] = Stability in simulated intestinal fluid; assay type: in vitro ADME; conditions: 2 μM, 37° C.; for % degradation in 24 h when incubated with simulated intestinal fluid: pH 7.5, 24 h
Method: as §1

DPP IV enzyme = DPP IV enzyme (Homo sapiens, UniProt P27487); assay: Stability against DPP IV enzyme; assay type: in vitro ADME; conditions: 2 μM, 37° C.; for half-life: read-out: half-life (t1/2) with DPP-IV enzyme
Method: (§2) Different peptidomimetics (final concentration 2 μM) were incubated with either DPP IV (1:25 mU) or pooled human plasma (7.5 μL) or simulated gastric fluid (pH 1.5; composition HCl, NaCl and Pepsin) or simulated intestinal fluid (pH 7.5) or human liver microsomes, for 0, 2, 4, 6, 12 and 24 h (37° C.; 50 mM triethanolamine-HCl buffer; pH 7.8). […] Reactions were terminated by the addition of TFA/H2O ([…], 10% (v/v)). The reaction products were then applied to a Vydac C18 analytical column (4.6×250-mm) and the major degradation fragment separated from intact peptidomimetic. The column was equilibrated with TFA/H20, at a flow rate of 1 mL/min. Using 0.1% (v/v) TFA in 70% acetonitrile/H2O, the concentration of acetonitrile in the eluting solvent was raised from 0% to 28% over 10 min and from 28% to 42% over 30 min. The absorbance was monitored at 206 nm using UV detector and peaks were collected manually prior to ESI-MS analysis. Area under the curve was measured for test peptidomimetics and their metabolites and percentage degradation were calculated at each time point over a period of 24 h.

[4] = Stability in simulated gastric fluid; assay type: in vitro ADME; conditions: 2 μM, 37° C.; for % degradation in 24 h when incubated with simulated gastric fluid: pH 1.5, 24 h; for half-life: simulated gi fluid, read-out: half-life (t1/2) in simulated gastric fluid; for half-life / half-life (t1/2) in simulated gastric fluid: pH 1.5
Method: as §1

[5] = Stability in human plasma; assay type: in vitro ADME; conditions: 2 μM, 37° C.; for half-life: human, plasma, read-out: half-life (t1/2) in human plasma
Method: as §2

DPP IV enzyme, sequence (P27487 whole entry, species assumed, the tested form may be a part): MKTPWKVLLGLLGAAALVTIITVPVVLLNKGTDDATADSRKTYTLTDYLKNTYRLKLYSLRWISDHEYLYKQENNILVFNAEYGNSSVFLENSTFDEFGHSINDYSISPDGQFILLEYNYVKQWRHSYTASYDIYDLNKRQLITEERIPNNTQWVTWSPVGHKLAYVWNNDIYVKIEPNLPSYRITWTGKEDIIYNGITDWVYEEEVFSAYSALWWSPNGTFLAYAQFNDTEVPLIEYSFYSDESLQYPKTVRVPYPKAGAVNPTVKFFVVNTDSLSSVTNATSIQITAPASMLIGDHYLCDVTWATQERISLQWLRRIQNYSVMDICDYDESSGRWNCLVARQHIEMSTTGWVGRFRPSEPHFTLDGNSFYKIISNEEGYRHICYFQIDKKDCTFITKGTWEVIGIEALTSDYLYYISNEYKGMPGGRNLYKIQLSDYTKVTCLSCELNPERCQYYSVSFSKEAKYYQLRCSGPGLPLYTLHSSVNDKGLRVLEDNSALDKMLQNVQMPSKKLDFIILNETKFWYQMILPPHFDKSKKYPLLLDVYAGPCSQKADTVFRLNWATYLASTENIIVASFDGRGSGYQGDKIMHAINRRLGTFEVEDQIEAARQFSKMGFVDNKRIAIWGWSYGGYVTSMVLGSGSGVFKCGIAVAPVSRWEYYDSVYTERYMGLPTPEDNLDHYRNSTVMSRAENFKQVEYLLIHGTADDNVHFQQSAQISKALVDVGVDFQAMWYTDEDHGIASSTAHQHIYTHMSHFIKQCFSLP

Structure (SMILES) | Insulin secretion ([1]; 0.1 nM test compd.) | Insulin secretion ([1]; 1 nM test compd.) | Insulin secretion ([1]; 10 nM test compd.) | % degradation in 24 h when incubated with liver microsomes [2] | half-life [2] | % degradation in 24 h when incubated with simulated intestinal fluid [3] | half-life ([3]; simulated gi fluid, pH 7.5, read-out: half-life (t1/2) in simulated intestinal fluid) | % degradation in 24 h when incubated with DPP-IV enzyme (DPP IV enzyme) | half-life (DPP IV enzyme) | % degradation in 24 h when incubated with simulated gastric fluid [4] | half-life [4] | % degradation in 24 h when incubated with human plasma [5] | half-life [5] | half-life (t1/2) in simulated intestinal fluid ([3]; pH 7.5) | half-life (t1/2) in simulated gastric fluid [4]
CCc1cc(OC)ccc1-c1ccc(CC(C)(NC(=O)[C@H](CC(=O)O)NC(=O)C(C)(CO)NC(=O)[C@@H](NC(=O)C(C)(Cc2ccccc2F)NC(=O)[C@@H](NC(=O)CNC(=O)[C@H](CCC(=O)O)NC(=O)[C@H](C)NC(=O)[C@H](Cc2c[nH]cn2)NC(=O)[C@@H](N)C(C)C)[C@@H](C)O)[C@@H](C)O)C(=O)NC(C)(CCCc2ccccc2)C(N)=O)cc1 (stereo partly drawn) [compound 170] (H-VHAEGT[ξαMePhe(2-F)]T[ξαMeS]D[ξαMeBip(2'-Et,4'-OMe)][ξαMe(hhPhe)]-NH2) | 12.3 ± 0.33 pg/µg/h | 14.8 ± 0.16 pg/µg/h | 28.1 ± 0.22 pg/µg/h | 81% | 2 h | 00% | > 24 h | 00% | > 24 h | 52% | 4 h | 00% | > 24 h |  | 
CCc1cc(OC)ccc1-c1ccc(CC(C)(NC(=O)[C@H](CC(=O)O)NC(=O)[C@H](CO)NC(=O)[C@@H](NC(=O)C(C)(Cc2c(F)cccc2F)NC(=O)[C@@H](NC(=O)CNC(=O)[C@H](CCC(=O)O)NC(=O)C(C)(C)NC(=O)[C@H](Cc2c[nH]cn2)NC(=O)[C@@H](N)C(C)C)[C@@H](C)O)[C@@H](C)O)C(=O)NC(CCCc2ccccc2)C(N)=O)cc1 (stereo partly drawn) [compound 31] (H-VH[Aib]EGT[ξαMePhe(2,6-F2)]TSD[ξαMeBip(2'-Et,4'-OMe)][ξhhPhe]-NH2) | 12.7 ± 0.21 pg/µg/h | 15.8 ± 0.33 pg/µg/h | 29.3 ± 0.19 pg/µg/h | 77% | 1 h | 41% |  | 86% | 9 h | 15% |  | 70% | 8 h | (6) h | (8) h
CCc1cc(OC)ccc1-c1ccc(CC(C)(NC(=O)[C@H](CC(=O)O)NC(=O)[C@H](CO)NC(=O)[C@@H](NC(=O)C(C)(Cc2c(F)cccc2F)NC(=O)[C@@H](NC(=O)CNC(=O)[C@H](CCC(N)=O)NC(=O)C2(C)CCCN2C(=O)[C@H](Cc2c[nH]cn2)NC(=O)[C@@H](N)C(C)C)[C@@H](C)O)[C@@H](C)O)C(=O)NC(CCCc2ccccc2)C(N)=O)cc1 (stereo partly drawn) [compound 28] (H-VH[ξαMeP]QGT[ξαMePhe(2,6-F2)]TSD[ξαMeBip(2'-Et,4'-OMe)][ξhhPhe]-NH2) | 11.8 ± 0.50 pg/µg/h | 14.9 ± 0.11 pg/µg/h | 27.9 ± 0.31 pg/µg/h | 78% | 1 h | 40% |  | 70% | 9 h | 14% |  | 71% | 8 h | (6) h | (8) h
CCc1cc(OC)ccc1-c1ccc(CC(C)(NC(=O)C(C)(CC(=O)O)NC(=O)[C@H](CO)NC(=O)[C@@H](NC(=O)[C@H](Cc2ccccc2)NC(=O)[C@@H](NC(=O)CNC(=O)[C@H](CCC(N)=O)NC(=O)[C@H](C)NC(=O)[C@H](Cc2c[nH]cn2)NC(=O)[C@@H](N)C(C)C)[C@@H](C)O)[C@@H](C)O)C(=O)NC(CCCc2ccccc2)C(N)=O)cc1 (stereo partly drawn) [compound 58] (H-VHAQGTFTS[ξαMeD][ξαMeBip(2'-Et,4'-OMe)][ξhhPhe]-NH2) | 16.1 ± 0.22 pg/µg/h | 22.1 ± 0.26 pg/µg/h | 36.0 ± 0.36 pg/µg/h | 77% | 2 h | 43% |  | 71% | 8 h | 11% | 7 h | 69% | 8 h | (6) h | 
CCc1cc(OC)ccc1-c1ccc(CC(C)(NC(=O)C(C)(CC(=O)O)NC(=O)[C@H](CO)NC(=O)[C@@H](NC(=O)C(C)(Cc2c(F)cccc2F)NC(=O)[C@@H](NC(=O)CNC(=O)[C@H](CCC(N)=O)NC(=O)C(C)(C)NC(=O)[C@H](Cc2c[nH]cn2)NC(=O)[C@@H](N)C(C)C)[C@@H](C)O)[C@@H](C)O)C(=O)NC(CCCc2ccccc2)C(N)=O)cc1 (stereo partly drawn) [compound 75] (H-VH[Aib]QGT[ξαMePhe(2,6-F2)]TS[ξαMeD][ξαMeBip(2'-Et,4'-OMe)][ξhhPhe]-NH2) | 16.4 ± 0.12 pg/µg/h | 22.7 ± 0.17 pg/µg/h | 36.6 ± 0.05 pg/µg/h | 83% | 1 h | 46% |  | 74% | 9 h | 12% |  | 75% | 8 h | (6) h | (8) h
CCc1cc(OC)ccc1-c1ccc(CC(C)(NC(=O)C(C)(CC(=O)O)NC(=O)[C@H](CO)NC(=O)[C@@H](NC(=O)C(C)(Cc2ccccc2F)NC(=O)[C@@H](NC(=O)CNC(=O)[C@H](CCC(=O)O)NC(=O)[C@H](CO)NC(=O)[C@H](Cc2c[nH]cn2)NC(=O)[C@@H](N)C(C)C)[C@@H](C)O)[C@@H](C)O)C(=O)NC(CCCc2ccccc2)C(N)=O)cc1 (stereo partly drawn) [compound 69] (H-VHSEGT[ξαMePhe(2-F)]TS[ξαMeD][ξαMeBip(2'-Et,4'-OMe)][ξhhPhe]-NH2) | 16.2 ± 0.13 pg/µg/h | 22.4 ± 0.19 pg/µg/h | 36.2 ± 0.09 pg/µg/h | 80% | 1 h | 43% |  | 76% | 9 h | 14% |  | 78% | 8 h | (6) h | (8) h
